Laboratory results reported in patent US8278319B2, “Substituted spiroamine compounds” (Gruenenthal GmbH, priority 2008, dated 2012).

Columns and labels:
rat B1R = biological target: T1, rat B1R (Rattus norvegicus, UniProt P97583); assay: Functional investigation on the bradykinin receptor 1 (B1R), FLIPR Ca2+ assay, rB1R cells; format: cell-based; conditions: % inhibition rat B1R at 10 μM; CHO K1 cells transfected with rat B1R; agonist Des-Arg9 bradykinin at EC80; read-out: % Inh. (rat B1R) 10 μM
T1 construct: expressed in transfected cells; host or cells: CHO K1 cells
T1 sequence (P97583 1-337): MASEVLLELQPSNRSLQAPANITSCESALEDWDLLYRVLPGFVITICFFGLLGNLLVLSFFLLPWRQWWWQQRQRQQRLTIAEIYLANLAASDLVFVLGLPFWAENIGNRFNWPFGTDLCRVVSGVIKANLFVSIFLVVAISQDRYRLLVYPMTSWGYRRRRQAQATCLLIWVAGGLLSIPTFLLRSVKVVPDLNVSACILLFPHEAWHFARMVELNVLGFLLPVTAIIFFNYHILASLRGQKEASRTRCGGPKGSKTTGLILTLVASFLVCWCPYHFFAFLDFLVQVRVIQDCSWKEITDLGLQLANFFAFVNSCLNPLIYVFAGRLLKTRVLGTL
Protocol: (§1) The agonistic or antagonistic action of substances can be quantified on the bradykinin receptor 1 (B1R) of the human and rat species with ectopically expressing cell lines (CHO K1 cells) and with the aid of a Ca^2+-sensitive dye (Fluo-4) using a fluorescent imaging plate reader (FLIPR). The indication in % activation is based on the Ca^2+ signal after addition of Lys-Des-Arg^9 bradykinin (0.5 nM) or Des-Arg^9 bradykinin (100 nM). Antagonists lead to a suppression of the Ca^2+ influx following administration of the agonist. The % inhibition in comparison with the maximum achievable inhibition is indicated.
(§2) The agonistic or antagonistic action of substances can be determined on the bradykinin 1 receptor (B1R) of the human and rat species with the following assay. According to this assay, the Ca^2+ inflow through the channel is quantified with the aid of a Ca^2+-sensitive dye (Fluo-4 type, Molecular Probes Europe BV, Leiden, The Netherlands) in a fluorescent imaging plate reader (FLIPR, Molecular Devices, Sunnyvale, USA).
(§3) Chinese hamster ovary cells (CHO K1 cells) which are stably transfected with the human B1R gene (hB1R cells) or the B1R gene of the rat (rB1R cells) are used. For functional investigations, these cells are plated-out onto black 96-well plates with a clear base (BD Biosciences, Heidelberg, Germany or Greiner, Frickenhausen, Germany) in a density of 20,000-35,000 cells/well. Overnight, the cells are incubated at 37° C. and 5% CO2 in culture medium (hB1R cells: Nutrient Mixture Ham's F12, Gibco Invitrogen GmbH, Karlsruhe, Germany or DMEM, Sigma-Aldrich, Taufkirchen, Germany; rB1R cells: D-MEM/F12, Gibco Invitrogen, Karlsruhe, Germany) with 10 vol. % FBS (foetal bovine serum, Gibco Invitrogen GmbH, Karlsruhe, Germany or PAN Biotech GmbH, Aidenbach, Germany). On the following day the cells are loaded with 2.13 μM Fluo-4 (Molecular Probes Europe BV, Leiden, The Netherlands) in HBSS buffer (Hank's buffered saline solution, Gibco Invitrogen GmbH, Karlsruhe, Germany) with 2.5 mM probenecid (Sigma-Aldrich, Taufkirchen, Germany) and 10 mM HEPES (Sigma-Aldrich, Taufkirchen, Germany) for 60 min at 37° C. The plates are the washed twice with HBSS buffer, and HBSS buffer which additionally contains 0.1% BSA (bovine serum albumin; Sigma-Aldrich, Taufkirchen, Germany), 5.6 mM glucose and 0.05% gelatine (Merck KGaA, Darmstadt, Germany) is added. After a further incubation of 20 minutes at room temperature, the plates are inserted into the FLIPR for Ca^2+ measurement. Alternatively they are washed with buffer A (15 mM HEPES, 80 mM NaCl, 5 mM KCl, 1.2 mM CaCl2, 0.7 mM MgSO4, 2 g/l glucose, 2.5 mM probenecid) and loaded with buffer A with added 2.5 μM Fluo-4 and 0.025% Pluronic F127 (Sigma-Aldrich, Taufkirchen, Germany). The cells are then washed twice with buffer A and incubated for 30 minutes with buffer A, which additionally contains 0.05% BSA and 0.05% gelatine, at room temperature and then used for Ca^2+ measurement in the FLIPR.
(§4) The Ca^2+-dependent fluorescence is measured here before and after addition of substances (λex=488 nm, λem=540 nm). The quantification is performed by measuring the highest fluorescence intensity (FC, fluorescence counts) over time.
(§5) The FLIPR protocol comprises two additions of substance. Test substances (10 μM) are first pipetted onto the cells and the Ca^2+ inflow is compared with the control (hB1R: Lys-Des-Arg^9 bradykinin>=50 nM; rB1R: Des-Arg^9 bradykinin 10 μM). The value in % activation based on the Ca^2+ signal after addition of Lys-Des-Arg^9 bradykinin (>=50 nM) or Des-Arg^9 bradykinin (10 μM) is obtained therefrom. After incubation for 10-20 minutes, Lys-Des-Arg^9 bradykinin (hB1R) or Des-Arg^9 bradykinin (rB1R) is applied in the EC80 concentration and the inflow of Ca^2+ is likewise determined. Antagonists lead to a suppression of the Ca^2+ inflow. The % inhibition in comparison with the maximum achievable inhibition is calculated. […]

human B1R = biological target: T2, human B1R (Homo sapiens, UniProt P46663); assay: Functional investigation on the bradykinin receptor 1 (B1R), FLIPR Ca2+ assay, hB1R cells; format: cell-based; conditions: % inhibition human B1R at 10 μM; CHO K1 cells transfected with human B1R; agonist Lys-Des-Arg9 bradykinin at EC80; read-out: % Inh. (hum. B1R) 10 μM
T2 construct: expressed in transfected cells; host or cells: CHO K1 cells
T2 sequence (P46663 1-353): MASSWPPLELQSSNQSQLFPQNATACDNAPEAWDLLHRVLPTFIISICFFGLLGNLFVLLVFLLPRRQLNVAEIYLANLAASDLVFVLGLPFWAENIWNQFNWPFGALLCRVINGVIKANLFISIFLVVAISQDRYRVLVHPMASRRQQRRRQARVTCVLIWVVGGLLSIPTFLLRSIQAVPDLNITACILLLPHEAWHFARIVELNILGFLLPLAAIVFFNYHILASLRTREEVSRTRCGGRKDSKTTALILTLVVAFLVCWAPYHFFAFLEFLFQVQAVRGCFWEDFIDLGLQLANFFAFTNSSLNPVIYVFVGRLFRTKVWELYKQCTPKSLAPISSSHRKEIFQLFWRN
Protocol: as §1, §2, §3, §4, §5

## COc1cc(C)c(S(=O)(=O)N2CCCCC2CCCC(=O)N2CCC3(CC2)CCC(c2cccs2)(N(C)C)CC3)c(C)c1 (stereo not shown) [CC-16, 1-(3-Dimethylamino-3-thiophen-2-yl-9-azaspiro[5.5]undecan-9-yl)-4-[1-[(4-methoxy-2,6-dimethyl-phenyl)sulfonyl]-piperidin-2-yl]-butan-1-one]
Rat B1R
  inhibition at 10 µM: 102%
Human B1R
  inhibition at 10 µM: 99%

## COc1cc(C)c(S(=O)(=O)N2CCCC[C@H]2COCC(=O)N2CCC3(CC2)CCC(c2ccccc2)(N2CCC2)CC3)c(C)c1 [Compound 12, 1-(9-(Azetidin-1-yl)-9-phenyl-3-azaspiro[5.5]undecan-3-yl)-2-(((S)-1-(4-methoxy-2,6-dimethylphenylsulfonyl)piperidin-2-yl)methoxy)ethanone]
Rat B1R
  inhibition at 10 µM: 102%
Human B1R
  inhibition at 10 µM: 100%

## Cc1cc(S(=O)(=O)N2CCCCC2CCC(=O)N2CCC3(CC2)CCC(c2ccccc2)(N(C)C)CC3)c(C)cc1Cl (stereo not shown) [Compound 7, 3-(1-(4-Chloro-2,5-dimethylphenylsulfonyl)piperidin-2-yl)-1-(9-(dimethylamino)-9-phenyl-3-azaspiro[5.5]undecan-3-yl)propan-1-one]
Rat B1R
  inhibition at 10 µM: 97%
Human B1R
  inhibition at 10 µM: 98%

## O=C(CC1CCCCN1S(=O)(=O)c1cccc(C(F)(F)F)c1)N1CCC2(CC1)CCC(c1cccc(F)c1)(N1CCCC1)CC2 (stereo not shown) [CC-01, 1-[3-(3-Fluorophenyl)-3-pyrrolidin-1-yl-9-azaspiro[5.5]undecan-9-yl]-2-[1-[[3-(trifluoromethyl)phenyl]sulfonyl]-piperidin-2-yl]-ethanone]
Rat B1R
  inhibition at 10 µM: 75%
Human B1R
  inhibition at 10 µM: 73%

## COc1cc(C)c(S(=O)(=O)N2CCCC[C@H]2COCC(=O)N2CCC3(CC2)CCC(c2ccccc2)(N2CC(F)(F)C2)CC3)c(C)c1 [Compound 13, 1-(9-(3,3-Difluoroazetidin-1-yl)-9-phenyl-3-azaspiro[5.5]undecan-3-yl)-2-(((S)-1-(4-methoxy-2,6-dimethylphenylsulfonyl)piperidin-2-yl)methoxy)ethanone]
Rat B1R
  inhibition at 10 µM: 104%
Human B1R
  inhibition at 10 µM: 86%

## CN(C)C1(c2ccccc2)CCC2(CCN(C(=O)C[C@@H](NS(=O)(=O)c3ccc4ccccc4c3)c3ccccc3)CC2)CC1 [Compound 5, N-((1R)-3-(9-(Dimethylamino)-9-phenyl-3-azaspiro[5.5]undecan-3-yl)-3-oxo-1-phenylpropyl)naphthalene-2-sulfonamide]
Rat B1R
  inhibition at 10 µM: 99%
Human B1R
  inhibition at 10 µM: 77%

## Cc1cccc(Cl)c1S(=O)(=O)N1CCCCC1COCC(=O)N1CCC2(CC1)CCC(c1cccs1)(N(C)C)CC2 (stereo not shown) [CC-13, 2-[[1-[(2-Chloro-6-methyl-phenyl)sulfonyl]-piperidin-2-yl]-methoxy]-1-(3-dimethylamino-3-thiophen-2-yl-9-azaspiro[5.5]undecan-9-yl)-ethanone]
Rat B1R
  inhibition at 10 µM: 98%
Human B1R
  inhibition at 10 µM: 100%

## COc1cc(C)c(S(=O)(=O)N2CCCCC2CCCC(=O)N2CCC3(CC2)CCC(c2cccc(F)c2)(N2CCCC2)CC3)c(C)c1 (stereo not shown) [CC-02, 1-[3-(3-Fluorophenyl)-3-pyrrolidin-1-yl-9-azaspiro[5.5]undecan-9-yl]-4-[1-[(4-methoxy-2,6-dimethyl-phenyl)sulfonyl]-pipereridin-2-yl]-butan-1-one]
Rat B1R
  inhibition at 10 µM: 98%
Human B1R
  inhibition at 10 µM: 100%

## COc1cc(C)c(S(=O)(=O)N2C=CNC(=O)[C@H]2CC(=O)N2CCC3(CC2)CCC(c2ccccc2)(N(C)C)CC3)c(C)c1 [Compound 10, (3R)-3-(2-(9-(Dimethylamino)-9-phenyl-3-azaspiro[5.5]undecan-3-yl)-2-oxoethyl)-4-(4-methoxy-2,6-dimethylphenylsulfonyl)-3,4-dihydropyrazin-2(1H)-one]
Rat B1R
  inhibition at 10 µM: 92%
Human B1R
  inhibition at 10 µM: 100%

## COc1cc(C)c(S(=O)(=O)N(CCOCC(=O)N2CCC3(CC2)CCC(c2ccccc2)(N(C)C)CC3)C2CC2)c(C)c1 [Compound 3, N-Cyclopropyl-N-(2-(2-(9-(dimethylamino)-9-phenyl-3-azaspiro[5.5]undecan-3-yl)-2-oxoethoxy)ethyl)-4-methoxy-2,6-dimethylbenzenesulfonamide]
Rat B1R
  inhibition at 10 µM: 102%
Human B1R
  inhibition at 10 µM: 100%

## Cc1cccc(Cl)c1S(=O)(=O)N(CCOCC(=O)N1CCC2(CC1)CCC(c1cccc(F)c1)(N1CCCC1)CC2)C1CC1 [CC-06, 2-Chloro-N-cyclopropyl-N-[2-[2-[3-(3-fluorophenyl)-3-pyrrolidin-1-yl-9-azaspiro[5.5]undecan-9-yl]-2-oxo-ethoxy]-ethyl]-6-methyl-benzenesulfonic acid amide]
Rat B1R
  inhibition at 10 µM: 97%
Human B1R
  inhibition at 10 µM: 100%

## CN(C)C1(c2ccccc2)CCC2(CCN(C(=O)CC3CCCCN3S(=O)(=O)c3cccc(C(F)(F)F)c3)CC2)CC1 (stereo not shown) [Compound 9, 1-(9-(Dimethylamino)-9-phenyl-3-azaspiro[5.5]undecan-3-yl)-2-(1-(3-(trifluoromethyl)phenylsulfonyl)piperidin-2-yl)ethan-1-one]
Rat B1R
  inhibition at 10 µM: 38%
Human B1R
  inhibition at 10 µM: 92%

## Cc1cc(S(=O)(=O)N2CCCCC2CCC(=O)N2CCC3(CC2)CCC(c2cccs2)(N(C)C)CC3)c(C)cc1Cl (stereo not shown) [CC-14, 3-[1-[(4-Chloro-2,5-dimethyl-phenyl)sulfonyl]-piperidin-2-yl]-1-(3-dimethylamino-3-thiophen-2-yl-9-azaspiro[5.5]undecan-9-yl)-propan-1-one]
Rat B1R
  inhibition at 10 µM: 101%
Human B1R
  inhibition at 10 µM: 99%

## COc1cc(C)c(S(=O)(=O)N2CCCC[C@H]2COCC(=O)N2CCC3(CC2)CCC(c2cccc(F)c2)(N(C)C)CC3)c(C)c1 [Compound 11, 1-(9-(Dimethylamino)-9-(3-fluorophenyl)-3-azaspiro[5.5]undecan-3-yl)-2-(((S)-1-(4-methoxy-2,6-dimethylphenylsulfonyl)piperidin-2-yl)methoxy)ethanone]
Rat B1R
  inhibition at 10 µM: 104%
Human B1R
  inhibition at 10 µM: 100%
